Measurements from patent US20260274892A1, “MACROCYCLIC BROAD SPECTRUM ANTIBIOTICS” (RQx Pharmaceuticals, Inc., priority 2017, published 2026).

These molecules were tested on Escherichia coli ATCC 25922 (assay: Minimum inhibitory concentration (MIC), CLSI broth micro-dilution, E. coli). Conditions: Escherichia coli, ATCC25922, 22 h, Table 6, cation adjusted Mueller Hinton Broth + 0.002% Tween-80, 35° C.
Format: cell-based
Outline: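 Colonies grown 20 h at 35° C on Trypticase Soy agar (MRSA) or Luria agar (E. coli) were suspended in cation-adjusted Mueller Hinton broth with 0.002% Tween-80. Suspensions were added at OD600 0.0005 to 10-point twofold compound dilutions, then incubated 22 h at 35° C.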

MIC [µM]	SMILES
0.13	Cc1nc(-c2ccc(OC3CCCCC3)cc2)nc(C)c1C(=O)N[C@@H](CCN)C(=O)N[C@@H]1C(=O)N[C@@H](C)C(=O)N[C@H](C(=O)NCC#N)Cc2ccc(OCCN)c(c2)-c2cc1ccc2OCCN (racemic) [Compound 519, rac-(8S,11S,14S)-3,18-bis(2-aminoethoxy)-N-(cyanomethyl)-11-methyl-10,13-dioxo-14-[[rac-(2S)-4-amino-2-[[2-[4-(cyclohexoxy)phenyl]-4,6-dimethyl-pyrimidine-5-carbonyl]amino]butanoyl]amino]-9,12-diazatricyclo[13.3.1.12,6]icosa-1(18),2(20),3,5,15(19),16-hexaene-8-carboxamide]
1	C[C@@H]1NC(=O)[C@@H](N(C)C(=O)[C@H](CCN)NC(=O)c2c(N)cc(-c3ccc(C(C)(C)C)cc3)nc2N)c2ccc(OCCN)c(c2)-c2cc(ccc2OCCN)C[C@@H](C(=O)NCC#N)NC1=O (racemic) [Compound 520, rac-(8S,11S,14S)-3,18-bis(2-aminoethoxy)-N-(cyanomethyl)-11-methyl-14-[methyl-[rac-(2S)-4-amino-2-[[2,4-diamino-6-(4-tert-butylphenyl)pyridine-3-carbonyl]amino]butanoyl]amino]-10,13-dioxo-9,12-diazatricyclo[13.3.1.12,6]icosa-1(18),2(20),3,5,15(19),16-hexaene-8-carboxamide]
0.13	Cc1nc(-c2ccc(OC3CCCCC3)cc2)nc(C)c1C(=O)N[C@@H](CCN)C(=O)N(C)[C@@H]1C(=O)N[C@@H](C)C(=O)N[C@H](C(=O)NCC#N)Cc2ccc(OCCN)c(c2)-c2cc1ccc2O (racemic) [Compound 522, rac-(8S,11S,14S)-3-(2-aminoethoxy)-N-(cyanomethyl)-18-hydroxy-11-methyl-14-[methyl-[rac-(2S)-4-amino-2-[[2-[4-(cyclohexoxy)phenyl]-4,6-dimethyl-pyrimidine-5-carbonyl]amino]butanoyl]amino]-10,13-dioxo-9,12-diazatricyclo[13.3.1.12,6]icosa-1(18),2(20),3,5,15(19),16-hexaene-8-carboxamide]
4	CCCCc1ccc(-c2cc(N)c(C(=O)N[C@@H](CCN)C(=O)N(C)[C@@H]3C(=O)N[C@@H](C)C(=O)N[C@H](C(=O)NCC#N)Cc4ccc(OCCN)c(c4)-c4cc3ccc4OCCN)c(C)n2)nc1 (racemic) [Compound 529, rac-(8S,11S,14S)-3,18-bis(2-aminoethoxy)-N-(cyanomethyl)-11-methyl-14-[methyl-[rac-(2S)-4-amino-2-[[4-amino-6-(5-butyl-2-pyridyl)-2-methyl-pyridine-3-carbonyl]amino]butanoyl]amino]-10,13-dioxo-9,12-diazatricyclo[13.3.1.12,6]icosa-1(18),2(20),3,5,15(19),16-hexaene-8-carboxamide]

SMILES	MIC [µM]
Cc1nc(N2CCC(OCCC(C)(C)C)CC2)nc(C)c1C(=O)N[C@@H](CCN)C(=O)N(C)[C@@H]1C(=O)N[C@@H](C)C(=O)N[C@H](C(=O)NCC#N)Cc2ccc(OCCN)c(c2)-c2cc1ccc2OCCN (racemic) [Compound 527, rac-(8S,11S,14S)-3,18-bis(2-aminoethoxy)-N-(cyanomethyl)-11-methyl-14-[methyl-[rac-(2S)-4-amino-2-[[2-[4-(3,3-dimethylbutoxy)-1-piperidyl]-4,6-dimethyl-pyrimidine-5-carbonyl]amino]butanoyl]amino]-10,13-dioxo-9,12-diazatricyclo[13.3.1.12,6]icosa-1(18),2(20),3,5,15(19),16-hexaene-8-carboxamide]	0.38
Cc1nc(-c2ccc(OCCC(C)(C)C)cc2)nc(C)c1C(=O)N[C@@H](CCN)C(=O)N(C)[C@@H]1C(=O)N[C@@H](C)C(=O)N[C@H](C(=O)NCC#N)Cc2ccc(OCCN)c(c2)-c2cc1ccc2O (racemic) [Compound 528, rac-(8S,11S,14S)-3-(2-aminoethoxy)-N-(cyanomethyl)-18-hydroxy-11-methyl-14-[methyl-[rac-(2S)-4-amino-2-[[2-[4-(3,3-dimethylbutoxy)phenyl]-4,6-dimethyl-pyrimidine-5-carbonyl]amino]butanoyl]amino]-10,13-dioxo-9,12-diazatricyclo[13.3.1.12,6]icosa-1(18),2(20),3,5,15(19),16-hexaene-8-carboxamide]	0.063
Cc1nc(-c2ccc(OC3CCCCCC3)cc2)nc(N)c1C(=O)N[C@@H](CCN)C(=O)N(C)[C@@H]1C(=O)N[C@@H](C)C(=O)N[C@H](C(=O)NCC#N)Cc2ccc(OCCN)c(c2)-c2cc1ccc2OCCN (racemic) [Compound 532, rac-(8S,11S,14S)-3,18-bis(2-aminoethoxy)-N-(cyanomethyl)-11-methyl-14-[methyl-[rac-(2S)-4-amino-2-[[4-amino-2-[4-(cycloheptoxy)phenyl]-6-methyl-pyrimidine-5-carbonyl]amino]butanoyl]amino]-10,13-dioxo-9,12-diazatricyclo[13.3.1.12,6]icosa-1(18),2(20),3,5,15(19),16-hexaene-8-carboxamide]	0.063

Same assay, conditions: Escherichia coli, ATCC25922, Table 6, cation adjusted Mueller Hinton Broth + 0.002% Tween-80, 35° C., 22 hours

SMILES	MIC [µM]
Cc1nc(-c2ccc(C(C)(C)C)cc2)nc(C)c1C(=O)N[C@@H](COC(C)(C)C)C(=O)N[C@@H](CCN)C(=O)N(C)[C@@H]1C(=O)N[C@@H](C)C(=O)N[C@H](C(=O)NCC#N)Cc2ccc(OCCN)c(c2)-c2cc1ccc2OCCN (racemic) [Compound 466, rac-(8S,11S,14S)-3,18-bis(2-aminoethoxy)-N-(cyanomethyl)-11-methyl-14-[methyl-[rac-(2S)-4-amino-2-[[rac-(2S)-3-tert-butoxy-2-[[2-(4-tert-butylphenyl)-4,6-dimethyl-pyrimidine-5-carbonyl]amino]propanoyl]amino]butanoyl]amino]-10,13-dioxo-9,12-diazatricyclo[13.3.1.12,6]icosa-1(18),2(20),3,5,15(19),16-hexaene-8-carboxamide]	1.5
Cc1nc(-c2ccc(C(C)(C)C)cc2)nc(C)c1C(=O)N[C@H](COC(C)(C)C)C(=O)N[C@@H](CCN)C(=O)N(C)[C@@H]1C(=O)N[C@@H](C)C(=O)N[C@H](C(=O)NCC#N)Cc2ccc(OCCN)c(c2)-c2cc1ccc2OCCN (racemic) [Compound 468, rac-(8S,11S,14S)-3,18-bis(2-aminoethoxy)-N-(cyanomethyl)-11-methyl-14-[methyl-[rac-(2S)-4-amino-2-[[rac-(2R)-3-tert-butoxy-2-[[2-(4-tert-butylphenyl)-4,6-dimethyl-pyrimidine-5-carbonyl]amino]propanoyl]amino]butanoyl]amino]-10,13-dioxo-9,12-diazatricyclo[13.3.1.12,6]icosa-1(18),2(20),3,5,15(19),16-hexaene-8-carboxamide]	1
CCCCCCc1ccc(C(=O)N2C[C@H](N)CC2C(=O)N(C)[C@@H]2C(=O)N[C@@H](C)C(=O)N[C@H](C(=O)NCC#N)Cc3ccc(OCCN)c(c3)-c3cc2ccc3OCCN)c(C)c1 (mixture of isomers) [Compound 481, rac-(8S,11S,14S)-3,18-bis(2-aminoethoxy)-14-[[4-amino-1-(4-hexyl-2-methyl-benzoyl)pyrrolidine-2-carbonyl]-methyl-amino]-N-(cyanomethyl)-11-methyl-10,13-dioxo-9,12-diazatricyclo[13.3.1.12,6]icosa-1(18),2(20),3,5,15(19),16-hexaene-8-carboxamide]	2.3
Cc1nc(-c2ccc(C(C)(C)C)cc2)ncc1C(=O)N[C@@H](CNC(=O)CN)C(=O)N(C)[C@@H]1C(=O)N[C@@H](C)C(=O)N[C@H](C(=O)NCC#N)Cc2ccc(OCCN)c(c2)-c2cc1ccc2OCCN (racemic) [Compound 491, rac-(8S,11S,14S)-3,18-bis(2-aminoethoxy)-N-(cyanomethyl)-11-methyl-14-[methyl-[rac-(2S)-3-[(2-aminoacetyl)amino]-2-[[2-(4-tert-butylphenyl)-4-methyl-pyrimidine-5-carbonyl]amino]propanoyl]amino]-10,13-dioxo-9,12-diazatricyclo[13.3.1.12,6]icosa-1(18),2(20),3,5,15(19),16-hexaene-8-carboxamide]	3.1
Cc1nc(-c2ccc(C(C)(C)C)cc2)ncc1C(=O)N[C@@H](CCNCC(N)=O)C(=O)N(C)[C@@H]1C(=O)N[C@@H](C)C(=O)N[C@H](C(=O)NCC#N)Cc2ccc(OCCN)c(c2)-c2cc1ccc2OCCN (racemic) [Compound 493, rac-(8S,11S,14S)-3,18-bis(2-aminoethoxy)-N-(cyanomethyl)-11-methyl-14-[methyl-[rac-(2S)-4-[(2-amino-2-oxo-ethyl)amino]-2-[[2-(4-tert-butylphenyl)-4-methyl-pyrimidine-5-carbonyl]amino]butanoyl]amino]-10,13-dioxo-9,12-diazatricyclo[13.3.1.12,6]icosa-1(18),2(20),3,5,15(19),16-hexaene-8-carboxamide]	1
Cc1nc(-c2ccc(C(C)(C)C)cc2)ncc1C(=O)N[C@@H](CCNC=O)C(=O)N(C)[C@@H]1C(=O)N[C@@H](C)C(=O)N[C@H](C(=O)NCC#N)Cc2ccc(OCCN)c(c2)-c2cc1ccc2OCCN (racemic) [Compound 494, rac-(8S,11S,14S)-3,18-bis(2-aminoethoxy)-N-(cyanomethyl)-11-methyl-14-[methyl-[rac-(2S)-2-[[2-(4-tert-butylphenyl)-4-methyl-pyrimidine-5-carbonyl]amino]-4-formamido-butanoyl]amino]-10,13-dioxo-9,12-diazatricyclo[13.3.1.12,6]icosa-1(18),2(20),3,5,15(19),16-hexaene-8-carboxamide]	1.1
Cc1nc(-c2ccc(OC3CCCCC3)cc2)nc(C)c1C(=O)N[C@@H](CCNC=O)C(=O)N(C)[C@@H]1C(=O)N[C@@H](C)C(=O)N[C@H](C(=O)NCC#N)Cc2ccc(OCCN)c(c2)-c2cc1ccc2OCCN (racemic) [Compound 504, rac-(8S,11S,14S)-3,18-bis(2-aminoethoxy)-N-(cyanomethyl)-11-methyl-14-[methyl-[rac-(2S)-2-[[2-[4-(cyclohexoxy)phenyl]-4,6-dimethyl-pyrimidine-5-carbonyl]amino]-4-formamido-butanoyl]amino]-10,13-dioxo-9,12-diazatricyclo[13.3.1.12,6]icosa-1(18),2(20),3,5,15(19),16-hexaene-8-carboxamide]	0.75
